Experimental data reported in patent US20080090780A1, “Storage stable azadirachtin pesticide formulation” (PBI/GORDON CORPORATION, priority 2006, published 2008).
Like-named read-outs stand apart in the source and are kept apart here.

Experiments:
[1] = type: physicochemical; details: for loss of AZA A: AZA alone without incorporation of a PYR (Table 2); for % Decomposition of AZA A and PYR: JeffSol AG-1555, Triton X-100
From the text: This invention relates to a storage stable, efficacious pesticide formulation dilutable by the user that contains azadirachtin made up of azadirachtin A and azadirachtin B, a pyrethrin or pyrethroid, a solvent, and an emulsifier. The pyrethrin or pyrethroid complexes with and minimizes decomposition of the azadirachtin A. An amount of the pyrethrin or pyrethroid is incorporated to form a complex with the azadirachtin A on opposite sides of the molecular structure thereof. […] Preferably, an aprotic heterocyclic or mono, di-, or polycyclic aromatic solvent is provided having C2-C25 carbon atoms and that is compatible with the azadirachtin A and pyrethrin or pyrethroid. In addition, a non-ionic emulsifier is preferably included in the formulation.
When a PYR was added to AZA A, the decomposition pathway of AZA A was stabilized, as shown by Table 2.
FIG. 1 is a plot of the percent AZA A decomposition on the Y-axis, as compared with the mole ratio of bifenthrin/AZA A on the X-axis, under an accelerated aging test of 30 days at 40° C. The loss of AZA A decreased as the mole ratio of PYR to AZA A approached 2:1, where the PYR was present in an amount to form a complex with the AZA A on opposite sides of the molecular structure thereof and sufficient to prevent further decomposition of the AZA A.
FIG. 3 compares the percent of AZA A decomposition on the Y-axis with the mole ratio of zeta cypermethrin to AZA A on the X-axis, also under an accelerated aging test of 30 days at 40° C.

[2] = Azadirachtin stability tests in seed oil carrier (soybean oil / Tween 85 containing 5% water); type: physicochemical; details: Soybean Oil (50% Seed Oil/50% Tween 85 containing 5% water), 40° C., 32 Days
From the text: AZA plus PYRs have been studied in conventional oil systems, such as soybean oil, canola oil, methylated soybean oil, epoxidized soybean oil, rape seed oil, and olive oil, all of which contained an emulsifier having as much as 5% of water. None of these oils in combination with the PYR stabilized the AZA A in the formulation, largely because of the presence of moisture in the emulsifier. When AZA is combined with PYR and the types of solvents and emulsifiers disclosed herein, the AZA A of the formulation is stabilized. Table 9 records test results of AZA+soybean oil as compared with AZA+PYR+soybean oil.

[3] = test system: potato aphids; experiment: Greenhouse tests on live potato aphids on tomatoes; type: in vivo; details: Azadirachtin 0.0008 lbs/gal, bifenthrin 0.005 lbs/gal, combination as labelled
[4] = Azadirachtin A/B 0.50% + Bifenthrin 2.01%, 1 Month/40° C.
[5] = Azadirachtin A/B 0.50% + Bifenthrin 2.01%, 1 Month/Ambient
[6] = Azadirachtin A/B 1.50% + 1.50% second active, 1 Month/40° C.
[7] = Azadirachtin A/B 1.50% + 1.50% second active, 1 Month/Ambient
[8] = Azadirachtin A/B 1.75% + Bifenthrin 1.00%, 1 Month/40° C.
[9] = Azadirachtin A/B 2.00% + Bifenthrin 0.50%, 1 Month/40° C.

Row | Molecule | loss of AZA A [1] | % Decomposition of AZA A and PYR [1, 4] [%] | % Decomposition of AZA A and PYR [1, 5] [%] | % Decomposition of AZA A and PYR [1, 6] [%] | % Decomposition of AZA A and PYR [1, 7] [%] | % Decomposition of AZA A and PYR [1, 8] [%] | % Decomposition of AZA A and PYR [1, 9] [%] | % Decomposition of AZA A and PYR ([1]; Azadirachtin A/B only 3.01% AI, 1 Month/40° C.) [%] | AZA A Stability in Formulation ([2]; AZA A/B 0.50% + Bifenthrin 2.00%) [%] | AZA A Stability in Formulation ([2]; AZA A/B 0.50% + Permethrin 2.00%) [%] | AZA A Stability in Formulation ([2]; AZA A/B 0.50% + Z-Cypermethrin 2.00%) [%] | AZA A Stability in Formulation ([2]; AZA A/B 3.00% alone) [%] | Live potato aphids on tomatoes (aphid mean numbers) ([3]; 0 DAT1) [a] | Live potato aphids on tomatoes (aphid mean numbers) ([3]; 0 DAT2) | Live potato aphids on tomatoes (aphid mean numbers) ([3]; 3 DAT1) [b] | Live potato aphids on tomatoes (aphid mean numbers) ([3]; 3 DAT2) | Live potato aphids on tomatoes (aphid mean numbers) ([3]; 7 DAT1) | Live potato aphids on tomatoes (aphid mean numbers) ([3]; 7 DAT2) | loss of AZA A (percent of AZA A decomposition) ([1]; 1:1 mole ratio zeta cypermethrin to AZA A, accelerated aging test of 30 days at 40° C., FIG. 3) [%] | % Decomposition of AZA A and PYR ([1]; Bifenthrin only 3.01% AI, 1 Month/40° C.) [%]
1 | azadirachtin [Azadirachtin A/B] | 12.64% | −4.30 | −1.03 | −4.20 | −0.14 | −7.37 | −7.61 | −12.64 | −54.27 | −52.62 | −48.25 | −27.02 | 338 | 11 c | 120 | 3 c | 18 c | 1 c | – | –
2 | C/C=C(\C)C(=O)O[C@H]1C[C@@H](OC(C)=O)[C@@]2(C(=O)OC)CO[C@@H]3C2[C@]12CO[C@@](O)(C(=O)OC)[C@H]2[C@](C)(C12OC1(C)C1C[C@H]2O[C@@H]2OC=CC12O)[C@@H]3O (stereo partly drawn) [AZA A, azadirachtin A] | more than 12% | – | – | – | – | – | – | – | – | – | – | – | – | – | – | – | – | – | 1 | –
3 | Cc1c(COC(=O)[C@@H]2[C@H](/C=C(\Cl)C(F)(F)F)C2(C)C)cccc1-c1ccccc1 (racemic) [Bifenthrin, bifenthrin] | – | −2.67 | −2.42 | −2.96 | −2.82 | −2.21 | −0.82 | – | – | – | – | – | 357 | 162 b | 131 | 89 b | 179 b | 64 b | – | −2.54
